Experimental data published in ChEMBL document CHEMBL1201862, “PubChem BioAssay data set” (2004).
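Method: 48-hour compound exposure of cells in 96-well plates, five concentrations, linear interpolation of endpoints. GI50 = concentration required for 50% inhibition of growth.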 The source made the active and inactive calls. Cut-off read from the data, not from the text of the source: active = GI50 up to about 1.1 µM and inactive = higher.

Columns and labels:
Assay in all cases: NCI tumour cell line growth inhibition, 48 h
786-0 = tested on: 786-0
A498 = tested on: A498
A549 = tested on: A549
ACHN = tested on: ACHN
BT-549 = tested on: BT-549
CAKI-1 = tested on: CAKI-1
CCRF-CEM = tested on: CCRF-CEM
COLO 205 = tested on: COLO 205
DU-145 = tested on: DU-145
EKVX = tested on: EKVX
HCC 2998 = tested on: HCC 2998
HCT-116 = tested on: HCT-116
HCT-15 = tested on: HCT-15
HL-60 = tested on: HL-60
HOP-62 = tested on: HOP-62
HOP-92 = tested on: HOP-92
HT-29 = tested on: HT-29
Hs-578T = tested on: Hs-578T
IGROV-1 = tested on: IGROV-1
K562 = tested on: K562
KM12 = tested on: KM12
LOX IMVI = tested on: LOX IMVI
M14 = tested on: M14
MCF7 = tested on: MCF7
MDA-MB-231 = tested on: MDA-MB-231
MDA-MB-435 = tested on: MDA-MB-435
MDA-N = tested on: MDA-N
MOLT-4 = tested on: MOLT-4
Malme-3M = tested on: Malme-3M
NCI-H226 = tested on: NCI-H226
NCI-H23 = tested on: NCI-H23
NCI-H460 = tested on: NCI-H460
NCI-H522 = tested on: NCI-H522
NCI/ADR-RES = tested on: NCI/ADR-RES
OVCAR-3 = tested on: OVCAR-3
OVCAR-4 = tested on: OVCAR-4
OVCAR-5 = tested on: OVCAR-5
OVCAR-8 = tested on: OVCAR-8
PC-3 = tested on: PC-3
RPMI-8226 = tested on: RPMI-8226
RXF 393 = tested on: RXF 393
SF-268 = tested on: SF-268
SF-295 = tested on: SF-295
SF-539 = tested on: SF-539
SK-MEL-28 = tested on: SK-MEL-28
SK-MEL-2 = tested on: SK-MEL-2
SK-MEL-5 = tested on: SK-MEL-5
SK-OV-3 = tested on: SK-OV-3
SN12C = tested on: SN12C
SNB-19 = tested on: SNB-19
SNB-75 = tested on: SNB-75
SR = tested on: SR
SW-620 = tested on: SW-620
T47D = tested on: T47D
TK-10 = tested on: TK-10
U-251 = tested on: U-251
UACC-257 = tested on: UACC-257
UACC-62 = tested on: UACC-62
UO-31 = tested on: UO-31

## C[As](C)SCC(NC(=O)CCC(N)C(=O)O)C(=O)NCC(=O)O.c1ccncc1 (centres undefined)
786-0
  GI50: 89.1 nM (active)
A498
  GI50: 437 nM (active)
A549
  GI50: 984 nM (active)
ACHN
  GI50: 117 nM (active)
BT-549
  GI50: 168 nM (active)
CAKI-1
  GI50: 66.2 nM (active)
CCRF-CEM
  GI50: 49.2 nM (active)
COLO 205
  GI50: 105 nM (active)
DU-145
  GI50: 86.7 nM (active)
EKVX
  GI50: 182 nM (active)
HCC 2998
  GI50: 188 nM (active)
HCT-116
  GI50: 198 nM (active)
HCT-15
  GI50: 70.2 nM
HL-60
  GI50: 57.8 nM (active)
HOP-62
  GI50: 885 nM (active)
HOP-92
  GI50: 84.3 nM (active)
HT-29
  GI50: 431 nM (active)
Hs-578T
  GI50: 336 nM (active)
IGROV-1
  GI50: 1420 nM (inactive)
K562
  GI50: 26.6 nM (active)
KM12
  GI50: 361 nM (active)
LOX IMVI
  GI50: 180 nM (active)
M14
  GI50: 220 nM (active)
MCF7
  GI50: 126 nM (active)
MDA-MB-231
  GI50: 261 nM (active)
MDA-MB-435
  GI50: 84.3 nM (active)
MDA-N
  GI50: 43.1 nM (active)
MOLT-4
  GI50: 3510 nM (inactive)
Malme-3M
  GI50: 38.9 nM (active)
NCI-H226
  GI50: 361 nM (active)
NCI-H23
  GI50: 284 nM (active)
NCI-H460
  GI50: 2380 nM (inactive)
NCI-H522
  GI50: 82.4 nM (active)
NCI/ADR-RES
  GI50: 141 nM (active)
OVCAR-3
  GI50: 39.9 nM (active)
OVCAR-4
  GI50: 592 nM (active)
OVCAR-5
  GI50: 436 nM (active)
OVCAR-8
  GI50: 231 nM (active)
PC-3
  GI50: 268 nM (active)
RPMI-8226
  GI50: 42.1 nM (active)
RXF 393
  GI50: 47.1 nM (active)
SF-268
  GI50: 547 nM (active)
SF-295
  GI50: 3230 nM (inactive)
SF-539
  GI50: 105 nM (active)
SK-MEL-28
  GI50: 421 nM (active)
SK-MEL-2
  GI50: 338 nM (active)
SK-MEL-5
  GI50: 96.6 nM (active)
SK-OV-3
  GI50: 7310 nM (inactive)
SN12C
  GI50: 506 nM (active)
SNB-19
  GI50: 3680 nM (inactive)
SNB-75
  GI50: 2700 nM (inactive)
SR
  GI50: 20 nM (active)
SW-620
  GI50: 85.5 nM (active)
T47D
  GI50: 93.8 nM (active)
TK-10
  GI50: 202 nM (active)
U-251
  GI50: 902 nM (active)
UACC-257
  GI50: 459 nM (active)
UACC-62
  GI50: 269 nM (active)
UO-31
  GI50: 182 nM (active)
